Consider seven molecules from patent EP4745138A1, “THIO-GLUTARIMIDO ISOINDOLINONE DERIVATIVE, BIFUNCTIONAL PROTEIN DEGRADER CONTAINING SAME, AND USES THEREOF” (Gluetacs Therapeutics (Shanghai) Co., Ltd., priority 2023, dated 2025).

In one assay the test system is MV-4-11. The assay is described as follows: Tumor cell proliferation inhibition (CellTiter-Meiluncell Luminescent Cell Viability Assay). It is filed as cell-based. The note with it: Homo sapiens, 96 hours; for inhibition at 0.01 µM: MV4-11, 10 nM, read-out: Inhibition Rate at 10 nM (%); for inhibition at 0.5 µM: MV4-11, 500 nM, read-out: Inhibition Rate at 500 nM (%). A digest of the protocol:
(§1)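 Following overnight seeding, tumor cells received serial compound dilutions to final levels that included 10 nM and 500 nM. Viability was assessed by luminescence at the end of the specified exposure time. Cultures were kept at 37°C with 5% CO2.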

For a further assay, the system named is SW620. The assay is described as above. In kind it is cell-based. The note with it: Homo sapiens, 96 hours; for inhibition at 0.01 µM: SW-620, 10 nM, read-out: Inhibition Rate at 10 nM (%); for inhibition at 0.5 µM: SW-620, 500 nM, read-out: Inhibition Rate at 500 nM (%). In a few lines:
as §1

In another assay the test system is JEKO-1. The description is as above. The note with it: Homo sapiens, 96 hours, Table I-6, IRAK4 inhibitors; for inhibition at 0.01 µM: 10 nM, read-out: Inhibition Rate at 10 nM (%); for inhibition at 0.5 µM: 500 nM, read-out: Inhibition Rate at 500 nM (%). In kind it is cell-based. A digest of the protocol: as §1
The next assay concerns MM.1S. The description is as above. The note with it: Homo sapiens, MM1.S; for inhibition at 0.01 µM: read-out: Inhibition Rate at 10 nM (%); for inhibition at 0.5 µM: read-out: Inhibition Rate at 500 nM (%). It is filed as cell-based. A digest of the protocol:
as §1

For assay [1], the target named is T1, human Cereblon WT GST-tagged protein (Homo sapiens, UniProt Q96SW2).
T1 construct: purchased CISBIO 64BDCRBNPEH
Kind of assay: CRBN-binding affinity, HTRF (CEREBLON BINDING kit). The note with it: for inhibition at 0.5 µM: read-out: Inhibition Rate at 0.5 µM (%); for inhibition at 2 µM: read-out: Inhibition Rate at 2 µM (%). In a few lines: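 cpd (final 2 µM, 0.5 µM; diluent #9 1X) + GST-CRBN WT + thalidomide-Red/anti-GST Eu mix; HTRF readout. Blanks: diluent + PROTAC binding buffer + detection mix.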
On the technique in general: TR-FRET usually uses a lanthanide donor and a delayed reading to cut background.

In the next assay the test system is MCF-7. Kind of assay: Tumor cell proliferation inhibition (CellTiter-Meiluncell Luminescent Cell Viability Assay). In kind it is cell-based. The note with it: Homo sapiens, 96 hours, Table I-2, ALK inhibitors; for inhibition at 0.01 µM: MCF7, 10 nM, read-out: Inhibition Rate at 10 nM (%); for inhibition at 0.5 µM: MCF7, 500 nM, read-out: Inhibition Rate at 500 nM (%). In a few lines:
as §1

Another assay concerns RPMI-8226. The description is as above. The note with it: Homo sapiens, 96 hours, Table I-10, BCR-ABL inhibitors. It is filed as cell-based. In a few lines:
as §1

The mark [2] stands for this setting: MM.1S, 10 nM, 96 hours, Table I-6, IRAK4 inhibitors.
The mark [3] stands for this setting: MM.1S, 500 nM, 96 hours, Table I-6, IRAK4 inhibitors.
The mark [4] stands for this setting: MM.1S, 10 nM, 96 hours, Table I-2, ALK inhibitors.
The mark [5] stands for this setting: MM.1S, 500 nM, 96 hours, Table I-2, ALK inhibitors.

Read-outs that look alike come from different tables or passages of the source.

T1 sequence (Q96SW2 whole entry): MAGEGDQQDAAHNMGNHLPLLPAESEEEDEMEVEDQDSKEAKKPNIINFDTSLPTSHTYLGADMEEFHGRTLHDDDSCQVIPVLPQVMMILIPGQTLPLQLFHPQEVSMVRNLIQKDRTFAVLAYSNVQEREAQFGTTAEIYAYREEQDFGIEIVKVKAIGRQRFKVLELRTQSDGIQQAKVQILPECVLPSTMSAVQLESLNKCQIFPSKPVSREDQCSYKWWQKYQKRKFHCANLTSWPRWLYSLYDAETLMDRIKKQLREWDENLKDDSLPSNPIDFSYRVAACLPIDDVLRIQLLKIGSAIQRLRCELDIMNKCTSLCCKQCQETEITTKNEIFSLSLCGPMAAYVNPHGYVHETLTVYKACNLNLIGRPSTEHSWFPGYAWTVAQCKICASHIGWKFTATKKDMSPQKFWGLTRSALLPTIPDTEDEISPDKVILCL

As for `O=C1CCC(N2Cc3cc(CN4CCC(n5cc(NC(=O)c6cnn7ccc(N8CCOCC8)nc67)c(C(F)F)n5)CC4)ccc3C2=S)C(=O)N1` (stereo not shown) [GT-05098, N-(3-(difluoromethyl)-1-(1-((2-(2,6-dioxopiperidin-3-yl)-1-thioxoisoindolin-5-yl)methyl)piperidin-4-yl)-1H-pyrazol-4-yl)-5-morpholinopyrazolo[1,5-a]pyrimidine-3-carboxamide], the inhibition at 0.01 µM in the assay with MV-4-11 (Table I-6, IRAK4 inhibitors) lay in the range of 20 to 30%; in the assay with SW620 (Table I-6, IRAK4 inhibitors), 10 to 20%; in the assay on JEKO-1 it was 5 to 10%; in the assay on MM.1S (setting [2]), 20 to 30%. The inhibition at 0.5 µM fell in the range of 80 to 100% in the assay on MV-4-11 (Table I-6, IRAK4 inhibitors); 40 to 50% with SW620 (Table I-6, IRAK4 inhibitors); 20 to 30% in the assay on JEKO-1; 80 to 100% in the assay with MM.1S (setting [3]); 80 to 100% in assay [1]. Moreover, the inhibition at 2 µM in assay [1] lay in the range of 80 to 100%.

For the molecule `O=C1CCC(N2Cc3cc(CN4CCC(n5cc(NC(=O)c6coc(-c7ccnc(NCC8CC8)c7)n6)c(C(F)F)n5)CC4)ccc3C2=S)C(=O)N1` (stereo not shown) [GT-05286, 2-(2-((cyclopropylmethyl)amino)pyridin-4-yl)-N-(3-(difluoromethyl)-1-(1-((2-(2,6-dioxopiperidin-3-yl)-1-thioxoisoindolin-5-yl)methyl)piperidin-4-yl)-1H-pyrazol-4-yl)oxazole-4-carboxamide], the inhibition at 0.01 µM in the assay on MV-4-11 (Table I-6, IRAK4 inhibitors) was 80 to 100%; in the assay with SW620 (Table I-6, IRAK4 inhibitors), 60 to 70%; in the assay with JEKO-1 it was 10 to 20%; in the assay with MM.1S (setting [2]) it was 50 to 60%. Further, the inhibition at 0.5 µM in the assay with MV-4-11 (Table I-6, IRAK4 inhibitors) is 80 to 100%; in the assay on SW620 (Table I-6, IRAK4 inhibitors), 70 to 80%; with JEKO-1 it was 80 to 100%; in the assay with MM.1S (setting [3]), 80 to 100%; in assay [1] it was 30 to 40%. Further, in assay [1], the inhibition at 2 µM fell in the range of 60 to 80%.

`O=C1CCC(N2Cc3cc(CN4CCC(n5cc(NC(=O)c6cnn7ccc(N8C[C@H]9C[C@@H]8CO9)nc67)c(C(F)F)n5)CC4)ccc3C2=S)C(=O)N1` (stereo partly drawn) [GT-05321, 5-((1R,4R)-2-oxa-5-azabicyclo[2.2.1]heptan-5-yl)-N-(3-(difluoromethyl)-1-(1-((2-(2,6-dioxopiperidin-3-yl)-1-thioxoisoindolin-5-yl)methyl)piperidin-4-yl)-1H-pyrazol-4-yl)pyrazolo[1,5-a]pyrimidine-3-carboxamide]: the inhibition at 0.01 µM in the assay on MV-4-11 (Table I-6, IRAK4 inhibitors) was in the range of 40 to 50%; in the assay with SW620 (Table I-6, IRAK4 inhibitors), 30 to 40%; in the assay with JEKO-1, 5 to 10%; with MM.1S (setting [2]), 30 to 40%. The inhibition at 0.5 µM in the assay with MV-4-11 (Table I-6, IRAK4 inhibitors) is 80 to 100%; in the assay on SW620 (Table I-6, IRAK4 inhibitors) it was 70 to 80%; in the assay on JEKO-1, 40 to 50%; in the assay on MM.1S (setting [3]), 80 to 100%; in assay [1] it was 60 to 80%. For the same molecule, in assay [1], the inhibition at 2 µM fell in the range of 80 to 100%.

Take `Cc1cc(Nc2ncc(Cl)c(Nc3ccccc3S(=O)(=O)C(C)C)n2)c(OC(C)C)cc1C1CCN(Cc2ccc3c(c2)CN(C2CCC(=O)NC2=O)C3=S)CC1` (stereo not shown) [GT-08674, 3-(5-((4-(4-((5-chloro-4-((2-(isopropylsulfonyl)pheny 1)amino)pyrimidin-2-yl)amino)-5-isopropoxy-2-methylphenyl)piperidin-1-yl)methyl)-1-thioxoisoindolin-2-yl)piperidine-2,6-dione]: the inhibition at 0.01 µM in the assay with MV-4-11 (Table I-2, ALK inhibitors) fell in the range of 0 to 10%; with MCF-7 it was 30 to 40%; in the assay with MM.1S (setting [4]) it was 30 to 40%. In addition, the inhibition at 0.5 µM in the assay on MV-4-11 (Table I-2, ALK inhibitors) is 30 to 40%; with MCF-7, 60 to 70%; in the assay on MM.1S (setting [5]), 80 to 100%; in assay [1] it was 40 to 53%. For the same molecule, in assay [1], the inhibition at 2 µM lay within 53 to 60%.

For `COc1cc(N2CCN(Cc3cccc4c3CN(C3CCC(=O)NC3=O)C4=S)CC2)ccc1Nc1ncc(Cl)c(Nc2ccccc2P(C)(C)=O)n1` (stereo not shown) [GT-08677, 3-(4-((4-(4-((5-chloro-4-((2-(dimethylphosphoryl)phenyl)amino)pyrimidin-2-yl)amino)-3-methoxyphenyl)piperazin-1-yl)methyl)-1-thioxoisoindolin-2-yl)piperidine-2,6-dione], the inhibition at 0.01 µM in the assay on MV-4-11 (Table I-2, ALK inhibitors) was 0 to 10%; with MCF-7, -5 to 0%; in the assay with MM.1S (setting [4]) it was 10 to 20%. Further, the inhibition at 0.5 µM with MV-4-11 (Table I-2, ALK inhibitors) was 60 to 70%; in the assay with MCF-7 it was 30 to 40%; with MM.1S (setting [5]) it was 20 to 30%; in assay [1] it was 53 to 60%. The inhibition at 2 µM in assay [1] lay in the range of 80 to 100%.

As to `Cc1ccc(C(=O)Nc2ccc(CN3CCN(Cc4cccc5c4CN(C4CCC(=O)NC4=O)C5=S)CC3)c(C(F)(F)F)c2)cc1C#Cc1cnc2cccnn12` (stereo not shown) [GT-08773, N-(4-((4-((2-(2,6-dioxopiperidin-3-yl)-1-thioxoisoindolin-4-yl)methyl)piperazin-1-yl)methyl)-3-(trifluoromethyl)phenyl)-3-(imidazo[1,2-b]pyridazin-3-ylethynyl)-4-methylbenzamide], the inhibition at 0.01 µM is 30 to 40% with MV-4-11 (Table I-10, BCR-ABL inhibitors); 0 to 5% in the assay on SW620 (Table I-10, BCR-ABL inhibitors); 10 to 20% with MM.1S (MM.1S, 10 nM, 96 hours, Table I-10, BCR-ABL inhibitors); 5 to 10% in the assay on RPMI-8226 (10 nM, read-out: Inhibition Rate at 10 nM (%)). Moreover, the inhibition at 0.5 µM in the assay with MV-4-11 (Table I-10, BCR-ABL inhibitors) fell in the range of 80 to 100%; in the assay on SW620 (Table I-10, BCR-ABL inhibitors) it was 70 to 80%; in the assay with MM.1S (MM.1S, 500 nM, 96 hours, Table I-10, BCR-ABL inhibitors), 80 to 100%; in the assay on RPMI-8226 (500 nM, read-out: Inhibition Rate at 500 nM (%)), 60 to 70%; in assay [1], 30 to 40%. The inhibition at 2 µM in assay [1] lay within 60 to 80%.

On to `CC[C@@H]1[C@H](F)C(=O)N[C@@H]1COc1nccc2cc(C(N)=O)c(OC)cc12` [PF06650833, PF-06650833, reference compound], for which the inhibition at 0.01 µM with MV-4-11 (Table I-6, IRAK4 inhibitors) is 20 to 30%; in the assay on SW620 (Table I-6, IRAK4 inhibitors), 10 to 20%; in the assay with JEKO-1, 10 to 20%; in the assay with MM.1S (96 h) it was 0 to 5%. In addition, the inhibition at 0.5 µM in the assay on MV-4-11 (Table I-6, IRAK4 inhibitors) lay in the range of 20 to 30%; in the assay with SW620 (Table I-6, IRAK4 inhibitors) it was 10 to 20%; in the assay with JEKO-1, 20 to 30%; in the assay with MM.1S (96 h) it was 0 to 5%.

As usually defined, the inhibition is the change of the read-out against control, counted positive when it falls.
